In BindingDB's records for doi:10.1021/acs.jmedchem.7b00782 (Jadavpur University, 2018):

Test: Inhibition of LAP (unknown origin)

Ki | Compound
56 µM | CC(C)CC(N)P(=O)(O)C(=O)N[C@H](CC(C)C)C(=O)O (some centres undefined)
1.3 µM | CC(C)CC(N)B1OC(C)(C)C(C)(C)O1 (centres undefined)
90 µM | CC(N)B1OC(C)(C)C(C)(C)O1 (centres undefined)
0.05 µM | CC1(C)OB(C(N)Cc2ccccc2)OC1(C)C (centres undefined)
